Data published in PMC3199943, “Screening the MayBridge Rule of 3 Fragment Library for Compounds That Interact with the Trypanosoma brucei myo-Inositol-3-Phosphate Synthase and/or Show Trypanocidal Activity” (Molecular Biology International, 2011).
Where two headings read alike, the source gives them in different places.

Legend:
HeLa cells = experiment: cells; conditions: for viability at 500 µM: Homo sapiens, HeLa, 65 h; for HeLa Cells Alamar Blue: Supplementary Table 1, compound 0.5 mM, percentage of controls, mean ± SD (n=3) or SE (n=2)
Outline: (§1)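 Alamar Blue read-out after a 5 h dye incubation that followed ~65 h compound exposure. Cells: HeLa or A549, 2 × 10^4/well, DMEM + 10% FCS + 2 mM L-Glutamine.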

TbINO1 = biological target: T1, TbINO1 (Trypanosoma brucei brucei, UniProt Q5QQ46); experiment: biochemical; format: binding
T1 sequence (Q5QQ46 1-528): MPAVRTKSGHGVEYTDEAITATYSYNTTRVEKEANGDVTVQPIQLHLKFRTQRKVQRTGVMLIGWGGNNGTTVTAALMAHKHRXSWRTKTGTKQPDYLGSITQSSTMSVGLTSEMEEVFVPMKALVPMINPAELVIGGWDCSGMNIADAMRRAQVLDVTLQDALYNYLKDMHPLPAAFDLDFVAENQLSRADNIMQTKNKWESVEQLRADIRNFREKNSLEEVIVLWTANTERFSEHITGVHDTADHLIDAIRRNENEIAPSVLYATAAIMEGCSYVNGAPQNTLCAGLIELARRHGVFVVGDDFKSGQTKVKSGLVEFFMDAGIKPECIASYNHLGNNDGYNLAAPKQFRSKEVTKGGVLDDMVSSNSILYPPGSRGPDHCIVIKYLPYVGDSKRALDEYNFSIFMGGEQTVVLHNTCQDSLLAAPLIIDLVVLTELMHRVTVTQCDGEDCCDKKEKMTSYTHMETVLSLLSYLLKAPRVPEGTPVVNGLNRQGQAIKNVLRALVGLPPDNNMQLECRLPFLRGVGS

A549 cells = experiment: Cytotoxicity against A549 cells, Alamar Blue; format: cell-based; conditions: Supplementary Table 1, compound 0.5 mM, percentage of controls (n=1); for viability at 500 µM: Homo sapiens, A549, 65 h
Outline: as §1

[1] = read-out: HeLa Cells Alamar Blue
[2] = read-out: Tb Ino1 Tm Shift [˚C]
[3] = Supplementary Table 1, compound 1mM, mean ± SD from Boltzman curve fitting
[4] = read-out: HeLa Cells Alamar Blue (% survival)

O=c1c2ccccc2oc2ncccc12 [compound 600, 5H‐chromeno[2,3‐b]pyridin‐5‐one]
viability at 500 µM (HeLa cells; [1]): 78.4 ± 11%
ΔTm at 1000 µM (TbINO1; [2]): 0.62 ± 0.05 °C
viability at 500 µM (A549 cells): 126%

CN(N)c1cc(C(F)(F)F)ccn1 [compound 554, 2‐(1‐methylhydrazino)‐4‐(trifluoromethyl)pyridine]
HeLa Cells Alamar Blue (HeLa cells): 95.6 ± 16.7 percentage of controls
Tb Ino1 Tm Shift [˚C] (TbINO1; [3]): 0.15 ± 0.08 °C
A549 Cells Alamar Blue (A549 cells): 96.1 percentage of controls

NC(=S)c1ccno1 [compound 86, isoxazole‐5‐carbothioamide]
viability at 500 µM (HeLa cells; [1]): 102 ± 3.4%
ΔTm at 1000 µM (TbINO1; [2]): 0.94 ± 0.08 °C
viability at 500 µM (A549 cells): 105%

Nc1ccc2ncsc2c1 [compound 191, 1,3‐benzothiazol‐6‐amine]
viability at 500 µM (HeLa cells; [1]): 76.3 ± 15.1%
ΔTm at 1000 µM (TbINO1; [2]): 0.44 ± 0.11 °C
viability at 500 µM (A549 cells): 38%

Cc1noc(C)c1C#N [compound 53, 3,5‐dimethyl‐4‐isoxazolecarbonitrile]
viability at 500 µM (HeLa cells; [1]): 89.3 ± 2.8%
ΔTm at 1000 µM (TbINO1; [2]): 0.52 ± 0.09 °C
viability at 500 µM (A549 cells): 84.5%

COc1ncccc1N [compound 65, 2‐methoxypyridin‐3‐amine]
viability at 500 µM (HeLa cells; [1]): 66.6 ± 18.7%
ΔTm at 1000 µM (TbINO1; [2]): 1.46 ± 0.07 °C
viability at 500 µM (A549 cells): 75.4%

Cc1cc(N)[nH]n1 [compound 6, 3‐methyl‐1H‐pyrazol‐5‐amine]
viability at 500 µM (HeLa cells; [1]): 102 ± 3.3%
ΔTm at 1000 µM (TbINO1; [2]): 0.2 ± 0.06 °C
viability at 500 µM (A549 cells): 121%

Cc1cc(Cl)ccc1C(=O)O [compound 350, 4‐chloro‐2‐methylbenzoic acid]
viability at 500 µM (HeLa cells; [1]): 108 ± 9.9%
ΔTm at 1000 µM (TbINO1; [2]): 1.05 ± 0.07 °C
viability at 500 µM (A549 cells): 160%

O=C(O)CCc1cccs1 [compound 237, 3‐(2‐thienyl)propanoic acid]
viability at 500 µM (HeLa cells; [1]): 113 ± 7.8%
ΔTm at 1000 µM (TbINO1; [2]): 0.22 ± 0.07 °C
viability at 500 µM (A549 cells): 70.9%

NCCc1cccs1 [compound 81, 2‐(2‐thienyl)ethylamine]
viability at 500 µM (HeLa cells; [1]): 117 ± 8.9%
ΔTm at 1000 µM (TbINO1; Supplementary Table 1, compound 1mM, mean ± SD from Boltzman curve fitting, read-out: Tb Ino1 Tm Shift [˚C]): 0.09 ± 0.07 °C
viability at 500 µM (A549 cells): 119%

Cc1cccc2c1NCCC2 [compound 166, 8‐methyl‐1,2,3,4‐tetrahydroquinoline]
viability at 500 µM (HeLa cells; [1]): 95.5 ± 1.6%
ΔTm at 1000 µM (TbINO1; [2]): 0.06 ± 0.07 °C
viability at 500 µM (A549 cells): 76%

COC(=O)C1NCCS1 (stereo not drawn) [compound 44]
viability at 500 µM (HeLa cells; [1]): 85.7 ± 19.3%
viability at 500 µM (HeLa cells; [4]): 108 ± 15.9%
ΔTm at 1000 µM (TbINO1; [2]): 0.11 ± 0.06 °C
ΔTm at 1000 µM (TbINO1; read-out: TbIno1 Tm shift [°C]): 2.81 ± 0.1 °C
viability at 500 µM (A549 cells): 75.7%

Nc1ccc(CN2CCOCC2)cc1 [compound 567, 4‐(morpholinomethyl)aniline]
viability at 500 µM (HeLa cells; [1]): 90.1 ± 15.9%
ΔTm at 1000 µM (TbINO1; [2]): 0.61 ± 0.05 °C
viability at 500 µM (A549 cells): 103%

ON=C1CCCc2ccccc21 [compound 279, 1,2,3,4‐tetrahydronaphthalen‐1‐one oxime]
HeLa Cells Alamar Blue (HeLa cells): 19.9 ± 19.7 percentage of controls
Tb Ino1 Tm Shift [˚C] (TbINO1; [3]): 0.76 ± 0.08 °C
A549 Cells Alamar Blue (A549 cells): 16.9 percentage of controls

O=C(O)CCc1ccccc1O [compound 323, 3‐(2‐hydroxyphenyl)propanoic acid]
viability at 500 µM (HeLa cells; [1]): 113 ± 2.8%
ΔTm at 1000 µM (TbINO1; [2]): 1.23 ± 0.07 °C
viability at 500 µM (A549 cells): 110%

O=C(Nc1ccncc1)c1ccccc1 [compound 603, N1‐(4‐pyridyl)benzamide]
viability at 500 µM (HeLa cells; [1]): 79 ± 15.1%
ΔTm at 1000 µM (TbINO1; [2]): 0.32 ± 0.07 °C
viability at 500 µM (A549 cells): 57.3%

Clc1ccc(Cl)s1 [compound 211, 2,5‐dichlorothiophene]
viability at 500 µM (HeLa cells; [1]): 99.6 ± 4.1%
ΔTm at 1000 µM (TbINO1; [2]): 0.02 ± 0.08 °C
viability at 500 µM (A549 cells): 117%

O=C(O)c1ccccc1-n1cccc1 [compound 513, 2-(1H-pyrrol-1-yl)benzoic acid]
viability at 500 µM (HeLa cells; [1]): 98.5 ± 6.5%
viability at 500 µM (HeLa cells; [4]): 98.5 ± 6.5%
ΔTm at 1000 µM (TbINO1; compound 1 mM, mean ± SD (n = 3), read-out: TbIno1 Tm shift [°C]): 3.14 ± 0.09 °C
viability at 500 µM (A549 cells): 64.4%

N#Cc1ccc(Oc2ccccn2)cc1 [compound 596, 4‐(pyridin‐2‐yloxy)benzonitrile]
viability at 500 µM (HeLa cells; [1]): 97.7 ± 11%
ΔTm at 1000 µM (TbINO1; [2]): 0.68 ± 0.07 °C
viability at 500 µM (A549 cells): 72.1%

Nc1ccc(CO)cn1 [compound 66, (6‐amino‐3‐pyridinyl)methanol]
viability at 500 µM (HeLa cells; [1]): 80.3 ± 9.7%
ΔTm at 1000 µM (TbINO1; [2]): 0.24 ± 0.09 °C
viability at 500 µM (A549 cells): 85.1%
